Results from patent US7074789B2, “Kinase inhibitors” (Amgen Inc., priority 1999, dated 2006).

Legend:
Type in all cases: biochemical
[1] = molecular target: T1, Zap-70 (Homo sapiens, UniProt P43403); experiment: Kinase inhibition assay (33P transfer), Zap-70; conditions: read-out: Zap-1
T1 construct: Kinases are expressed as either kinase domains or full length constructs; made in house
T1 sequence (P43403 1-619): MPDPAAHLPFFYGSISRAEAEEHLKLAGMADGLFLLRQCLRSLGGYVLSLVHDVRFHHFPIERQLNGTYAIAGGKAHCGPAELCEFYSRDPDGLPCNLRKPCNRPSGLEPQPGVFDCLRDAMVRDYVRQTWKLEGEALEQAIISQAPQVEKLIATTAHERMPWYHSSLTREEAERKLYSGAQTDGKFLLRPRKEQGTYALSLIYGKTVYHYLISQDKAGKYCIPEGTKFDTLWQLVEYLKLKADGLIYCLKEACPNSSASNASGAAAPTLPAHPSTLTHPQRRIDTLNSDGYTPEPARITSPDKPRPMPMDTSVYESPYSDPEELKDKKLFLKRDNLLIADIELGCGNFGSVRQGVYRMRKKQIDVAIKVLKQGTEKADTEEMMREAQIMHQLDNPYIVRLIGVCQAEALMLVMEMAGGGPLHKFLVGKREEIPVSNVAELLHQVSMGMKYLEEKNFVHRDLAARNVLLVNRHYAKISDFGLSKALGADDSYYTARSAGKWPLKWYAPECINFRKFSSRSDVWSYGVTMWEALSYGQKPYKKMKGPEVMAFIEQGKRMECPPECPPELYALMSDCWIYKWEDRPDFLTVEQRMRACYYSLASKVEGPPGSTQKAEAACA
Method in brief: (§1)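 Liquid scintillation counting of 33P on plate-bound synthetic substrates gives kinase activity. Plates are washed in 0.5% phosphoric acid first; kinases are tagged recombinant proteins from E. coli or baculovirus-infected High Five cells.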

[2] = molecular target: T2, PDGFRB (Homo sapiens, UniProt P09619); experiment: Kinase inhibition assay (33P transfer), PDGFRB; conditions: read-out: PDGFRB-1
T2 construct: Kinases are expressed as either kinase domains or full length constructs; made in house

[3] = molecular target: T3, c-Met (Homo sapiens, UniProt P08581); experiment: Kinase inhibition assay (33P transfer), c-Met; conditions: Table 2, kinase inhibition class; read-out: Met-1
T3 construct: Kinases are expressed as either kinase domains or full length constructs; made in house
Method in brief: (§2)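 Steps: coat wells with poly(Glu,Tyr) 4:1 or poly(Arg,Ser) 3:1; add purified kinase, [33P]ATP and inhibitor; incubate; wash with 0.5% phosphoric acid; add liquid scintillant; count. IC50 corresponds to half-maximal reduction of bound 33P.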

[4] = molecular target: T4, Flt-1 (Homo sapiens, UniProt P17948); experiment: Kinase inhibition assay (33P transfer), Flt-1
T4 construct: Kinases are expressed as either kinase domains or full length constructs; made in house
Method in brief: as §2

[5] = molecular target: T5, IGFR-1 (Homo sapiens, UniProt P08069); experiment: Kinase inhibition assay, IGFR-1 (Table 2); conditions: Table 2, kinase inhibition class
T5 construct: Kinases are expressed as either kinase domains or full length constructs; made in house
T5 sequence (P08069 31-1367): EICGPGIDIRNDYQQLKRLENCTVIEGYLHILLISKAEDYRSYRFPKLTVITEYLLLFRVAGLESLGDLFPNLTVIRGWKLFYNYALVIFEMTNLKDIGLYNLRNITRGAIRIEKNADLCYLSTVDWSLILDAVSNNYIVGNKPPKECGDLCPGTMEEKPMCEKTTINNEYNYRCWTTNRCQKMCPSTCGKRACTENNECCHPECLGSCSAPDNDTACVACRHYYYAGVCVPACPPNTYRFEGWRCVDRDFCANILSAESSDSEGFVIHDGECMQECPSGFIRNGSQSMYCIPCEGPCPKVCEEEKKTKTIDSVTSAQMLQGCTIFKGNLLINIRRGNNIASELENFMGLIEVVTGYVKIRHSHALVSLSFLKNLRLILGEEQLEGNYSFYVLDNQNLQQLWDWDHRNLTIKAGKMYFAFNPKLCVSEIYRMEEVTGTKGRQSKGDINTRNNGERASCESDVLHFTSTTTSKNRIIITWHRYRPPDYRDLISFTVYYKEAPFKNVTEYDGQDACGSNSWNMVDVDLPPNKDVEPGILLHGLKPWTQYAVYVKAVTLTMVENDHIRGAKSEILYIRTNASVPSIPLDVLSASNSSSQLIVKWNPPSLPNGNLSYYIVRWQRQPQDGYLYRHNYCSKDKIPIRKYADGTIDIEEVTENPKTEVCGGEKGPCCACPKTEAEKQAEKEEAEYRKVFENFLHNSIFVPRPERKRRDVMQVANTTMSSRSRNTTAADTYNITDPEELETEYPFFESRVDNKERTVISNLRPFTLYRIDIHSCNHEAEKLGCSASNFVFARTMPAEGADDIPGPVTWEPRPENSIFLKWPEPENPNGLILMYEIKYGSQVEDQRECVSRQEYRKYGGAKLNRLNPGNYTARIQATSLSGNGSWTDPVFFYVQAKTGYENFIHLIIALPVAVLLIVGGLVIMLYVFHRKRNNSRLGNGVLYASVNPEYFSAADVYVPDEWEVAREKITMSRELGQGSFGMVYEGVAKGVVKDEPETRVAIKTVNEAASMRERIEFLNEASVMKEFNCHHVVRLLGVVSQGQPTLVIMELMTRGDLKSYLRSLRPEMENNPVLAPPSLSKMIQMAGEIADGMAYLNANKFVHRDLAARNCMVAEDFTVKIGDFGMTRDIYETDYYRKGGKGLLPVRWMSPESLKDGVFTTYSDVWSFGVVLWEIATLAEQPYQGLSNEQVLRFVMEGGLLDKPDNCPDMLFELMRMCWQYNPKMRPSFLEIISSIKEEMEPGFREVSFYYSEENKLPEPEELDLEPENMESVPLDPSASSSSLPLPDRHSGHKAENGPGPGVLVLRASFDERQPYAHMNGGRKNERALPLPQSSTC

[6] = molecular target: T6, ErbB2 (Homo sapiens, UniProt P04626); experiment: Kinase inhibition assay (33P transfer), ErbB2; conditions: read-out: ErbB2-2
T6 construct: Kinases are expressed as either kinase domains or full length constructs; made in house
Method in brief: as §2

[7] = molecular target: T7, AKT (Homo sapiens, UniProt Q9Y243); experiment: Kinase inhibition assay (33P transfer), AKT; conditions: Table 2, kinase inhibition class; read-out: AKT3-1
T7 construct: Kinases are expressed as either kinase domains or full length constructs; made in house
T7 sequence (Q9Y243 whole entry, the tested form may be a part): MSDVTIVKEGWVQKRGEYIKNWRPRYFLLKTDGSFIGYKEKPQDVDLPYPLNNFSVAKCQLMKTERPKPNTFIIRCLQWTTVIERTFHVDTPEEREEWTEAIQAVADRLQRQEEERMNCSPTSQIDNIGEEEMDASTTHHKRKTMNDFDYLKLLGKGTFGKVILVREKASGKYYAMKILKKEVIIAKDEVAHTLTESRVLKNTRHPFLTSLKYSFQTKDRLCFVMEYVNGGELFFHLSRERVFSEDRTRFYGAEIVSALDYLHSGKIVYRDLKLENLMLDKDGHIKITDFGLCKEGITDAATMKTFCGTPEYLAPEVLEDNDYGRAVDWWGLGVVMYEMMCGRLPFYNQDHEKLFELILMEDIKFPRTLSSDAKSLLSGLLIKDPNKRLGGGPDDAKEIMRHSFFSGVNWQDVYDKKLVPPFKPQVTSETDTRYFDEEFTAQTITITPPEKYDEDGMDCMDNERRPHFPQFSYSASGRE
Method in brief: as §1

[8] = molecular target: T8, Lck (Homo sapiens, UniProt P06239); experiment: Kinase inhibition assay (33P transfer), Lck; conditions: read-out: Lck-1
T8 construct: Kinases are expressed as either kinase domains or full length constructs; made in house
T8 sequence (P06239 whole entry, species assumed, the tested form may be a part): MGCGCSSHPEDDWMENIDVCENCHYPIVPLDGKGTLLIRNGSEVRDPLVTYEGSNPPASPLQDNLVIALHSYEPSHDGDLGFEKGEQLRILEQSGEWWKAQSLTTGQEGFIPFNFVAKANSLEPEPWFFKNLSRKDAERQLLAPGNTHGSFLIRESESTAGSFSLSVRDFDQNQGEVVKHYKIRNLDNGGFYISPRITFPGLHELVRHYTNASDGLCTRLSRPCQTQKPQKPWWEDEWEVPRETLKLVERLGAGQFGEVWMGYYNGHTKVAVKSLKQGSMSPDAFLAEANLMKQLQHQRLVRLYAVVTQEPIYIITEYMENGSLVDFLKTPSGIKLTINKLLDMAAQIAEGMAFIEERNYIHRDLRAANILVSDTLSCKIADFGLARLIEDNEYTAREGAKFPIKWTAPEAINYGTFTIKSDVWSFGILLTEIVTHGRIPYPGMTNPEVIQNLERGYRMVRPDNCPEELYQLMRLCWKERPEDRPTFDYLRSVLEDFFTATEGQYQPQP
Method in brief: as §1

[9] = molecular target: T9, Fyn (Homo sapiens, UniProt P06241); experiment: Kinase inhibition assay (33P transfer), Fyn; conditions: read-out: Fyn-1
T9 construct: Kinases are expressed as either kinase domains or full length constructs; made in house
Method in brief: as §2

[10] = molecular target: T10, ErbB4 (Homo sapiens, UniProt Q15303); experiment: Kinase inhibition assay (33P transfer), ErbB4; conditions: read-out: ErbB4-1
T10 construct: Kinases are expressed as either kinase domains or full length constructs; made in house

[11] = molecular target: T11, Hck-1 (Homo sapiens, UniProt P08631); experiment: Kinase inhibition assay (33P transfer), Hck; conditions: Table 6, Hck-1 kinase inhibition class
T11 construct: Kinases are expressed as either kinase domains or full length constructs; made in house

[12] = molecular target: T12, Lyn (Homo sapiens, UniProt P07948); experiment: Kinase inhibition assay (33P transfer), Lyn; conditions: Table 6, Lyn-1 kinase inhibition class
T12 construct: Kinases are expressed as either kinase domains or full length constructs; made in house
T12 sequence (P07948 whole entry, species assumed, the tested form may be a part): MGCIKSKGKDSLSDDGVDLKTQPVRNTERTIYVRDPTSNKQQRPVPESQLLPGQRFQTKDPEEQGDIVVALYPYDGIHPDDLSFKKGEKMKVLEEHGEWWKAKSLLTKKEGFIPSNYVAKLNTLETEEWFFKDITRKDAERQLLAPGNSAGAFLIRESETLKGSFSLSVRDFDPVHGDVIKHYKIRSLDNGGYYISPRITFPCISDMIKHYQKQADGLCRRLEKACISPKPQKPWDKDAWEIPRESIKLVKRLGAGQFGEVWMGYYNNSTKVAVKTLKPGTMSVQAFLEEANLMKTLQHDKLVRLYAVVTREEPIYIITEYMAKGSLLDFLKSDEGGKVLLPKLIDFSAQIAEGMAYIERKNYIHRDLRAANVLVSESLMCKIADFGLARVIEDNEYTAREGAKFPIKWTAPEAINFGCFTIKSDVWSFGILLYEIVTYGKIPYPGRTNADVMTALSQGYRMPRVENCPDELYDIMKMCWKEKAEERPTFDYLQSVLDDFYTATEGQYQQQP
Method in brief: as §2

[13] = molecular target: T13, Ret-1 (Homo sapiens, UniProt P07949); experiment: Kinase inhibition assay (33P transfer), Ret; conditions: Table 6, Ret-1 kinase inhibition class
T13 construct: Kinases are expressed as either kinase domains or full length constructs; made in house

[14] = molecular target: T14, Kdr (Homo sapiens, UniProt P35968); experiment: Kinase inhibition assay (33P transfer), Kdr; conditions: read-out: KDR-1
T14 construct: Kinases are expressed as either kinase domains or full length constructs; made in house
T14 sequence (P35968 20-1356, species assumed): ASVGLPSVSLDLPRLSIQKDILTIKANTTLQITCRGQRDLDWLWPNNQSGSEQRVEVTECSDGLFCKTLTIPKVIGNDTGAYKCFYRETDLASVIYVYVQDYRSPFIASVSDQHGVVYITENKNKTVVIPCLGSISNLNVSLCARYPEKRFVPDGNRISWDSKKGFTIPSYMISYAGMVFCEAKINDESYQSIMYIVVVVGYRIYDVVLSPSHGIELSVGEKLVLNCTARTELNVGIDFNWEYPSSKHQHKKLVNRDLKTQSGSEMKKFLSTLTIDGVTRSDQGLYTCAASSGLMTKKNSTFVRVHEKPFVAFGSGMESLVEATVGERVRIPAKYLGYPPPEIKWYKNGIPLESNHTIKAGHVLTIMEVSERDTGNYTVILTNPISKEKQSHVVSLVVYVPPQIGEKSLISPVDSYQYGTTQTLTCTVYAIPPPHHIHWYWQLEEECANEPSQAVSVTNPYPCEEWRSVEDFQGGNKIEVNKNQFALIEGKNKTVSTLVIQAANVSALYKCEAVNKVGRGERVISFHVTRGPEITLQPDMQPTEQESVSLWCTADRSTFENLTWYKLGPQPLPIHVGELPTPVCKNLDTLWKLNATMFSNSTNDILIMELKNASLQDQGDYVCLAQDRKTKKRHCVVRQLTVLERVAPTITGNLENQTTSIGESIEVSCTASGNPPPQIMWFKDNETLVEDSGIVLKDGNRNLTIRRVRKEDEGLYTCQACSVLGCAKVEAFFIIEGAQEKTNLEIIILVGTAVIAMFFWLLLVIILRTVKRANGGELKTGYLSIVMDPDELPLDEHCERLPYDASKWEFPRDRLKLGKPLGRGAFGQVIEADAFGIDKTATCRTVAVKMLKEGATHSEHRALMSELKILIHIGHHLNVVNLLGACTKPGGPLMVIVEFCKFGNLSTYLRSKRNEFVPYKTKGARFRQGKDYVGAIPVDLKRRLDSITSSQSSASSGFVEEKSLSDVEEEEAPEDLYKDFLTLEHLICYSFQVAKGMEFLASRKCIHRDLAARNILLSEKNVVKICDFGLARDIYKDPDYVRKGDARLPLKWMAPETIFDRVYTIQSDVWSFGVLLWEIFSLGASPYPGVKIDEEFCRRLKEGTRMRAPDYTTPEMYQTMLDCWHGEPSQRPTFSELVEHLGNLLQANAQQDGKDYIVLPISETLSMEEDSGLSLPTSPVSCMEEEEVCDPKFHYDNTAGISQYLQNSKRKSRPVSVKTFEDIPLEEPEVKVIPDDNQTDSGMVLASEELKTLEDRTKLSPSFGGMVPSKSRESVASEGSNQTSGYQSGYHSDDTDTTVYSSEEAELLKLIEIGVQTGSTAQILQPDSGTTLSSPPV
Method in brief: as §1

[15] = molecular target: T15, Itk (Homo sapiens, UniProt Q08881); experiment: Kinase inhibition assay (33P transfer), Itk; conditions: read-out: Itk-1
T15 construct: Kinases are expressed as either kinase domains or full length constructs; made in house
T15 sequence (Q08881 1-620): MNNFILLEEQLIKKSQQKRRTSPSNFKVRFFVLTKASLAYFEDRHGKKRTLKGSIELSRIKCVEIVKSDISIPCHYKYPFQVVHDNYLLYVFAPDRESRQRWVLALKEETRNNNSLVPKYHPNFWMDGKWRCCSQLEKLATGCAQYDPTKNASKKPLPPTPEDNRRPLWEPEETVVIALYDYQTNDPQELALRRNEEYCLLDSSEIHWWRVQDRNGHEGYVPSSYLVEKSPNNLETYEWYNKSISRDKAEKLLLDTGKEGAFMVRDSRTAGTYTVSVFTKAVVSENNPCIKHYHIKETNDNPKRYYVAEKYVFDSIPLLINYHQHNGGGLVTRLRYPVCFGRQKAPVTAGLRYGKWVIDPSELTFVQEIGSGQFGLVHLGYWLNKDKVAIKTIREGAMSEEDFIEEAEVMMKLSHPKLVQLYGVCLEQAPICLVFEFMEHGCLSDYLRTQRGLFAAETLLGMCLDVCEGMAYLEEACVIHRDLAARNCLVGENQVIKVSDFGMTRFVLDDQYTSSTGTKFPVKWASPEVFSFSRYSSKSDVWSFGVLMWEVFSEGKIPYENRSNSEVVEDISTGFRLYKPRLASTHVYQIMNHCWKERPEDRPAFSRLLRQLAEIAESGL
Method in brief: as §2

[16] = molecular target: T16, Tek (Homo sapiens, UniProt Q02763); experiment: Kinase inhibition assay (33P transfer), Tek; conditions: read-out: Tek-1
T16 construct: Kinases are expressed as either kinase domains or full length constructs; made in house
Method in brief: as §2

[17] = molecular target: T17, FGFR1 (Homo sapiens, UniProt P11362); experiment: Kinase inhibition assay (33P transfer), FGFR1; conditions: read-out: FGFR1-1
T17 construct: Kinases are expressed as either kinase domains or full length constructs; made in house

[18] = molecular target: T18, Src (Homo sapiens, UniProt P12931); experiment: Kinase inhibition assay (33P transfer), Src; conditions: Table 6, Src-1 kinase inhibition class
T18 construct: Kinases are expressed as either kinase domains or full length constructs; made in house
T18 sequence (P12931 whole entry, species assumed, the tested form may be a part): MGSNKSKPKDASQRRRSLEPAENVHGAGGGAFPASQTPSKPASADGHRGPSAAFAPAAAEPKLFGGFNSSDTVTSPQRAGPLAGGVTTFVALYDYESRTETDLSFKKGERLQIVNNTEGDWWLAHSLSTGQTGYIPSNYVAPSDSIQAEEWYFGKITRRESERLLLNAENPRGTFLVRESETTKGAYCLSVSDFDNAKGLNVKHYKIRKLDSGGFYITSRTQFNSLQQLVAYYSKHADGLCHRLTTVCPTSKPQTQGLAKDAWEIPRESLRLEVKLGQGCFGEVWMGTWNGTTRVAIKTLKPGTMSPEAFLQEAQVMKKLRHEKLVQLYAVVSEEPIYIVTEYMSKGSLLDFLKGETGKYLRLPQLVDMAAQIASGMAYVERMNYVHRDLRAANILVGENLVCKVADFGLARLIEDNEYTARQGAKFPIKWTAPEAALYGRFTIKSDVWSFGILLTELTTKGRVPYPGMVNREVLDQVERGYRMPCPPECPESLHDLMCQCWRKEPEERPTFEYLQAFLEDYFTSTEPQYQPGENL
Method in brief: as §2

[19] = molecular target: T19, EGFR (Homo sapiens, UniProt P00533); experiment: Kinase inhibition assay (33P transfer), EGFR; conditions: Table 2, kinase inhibition class; read-out: EGFR-1
T19 construct: Kinases are expressed as either kinase domains or full length constructs; made in house
Method in brief: as §2

Measured: IC50

COc1cc(Nc2ncnc(-c3cccnc3NCc3ccc(F)cc3)n2)cc(OC)c1OC [Compound 1088]
< 0.865 µM: [2] | [13] | [14] | [17]
5.19 to 7.57 µM: [8]
> 9.73 µM: all other assays above

COc1cc(Nc2ncnc(-n3c(NCc4ccccc4F)nc4ccccc43)n2)cc(OC)c1OC [Compound 512]
0.798 to 4.79 µM: [4] | [8] | [10]
< 0.798 µM: [2] | [12] | [13] | [14] | [17]
4.79 to 6.98 µM: [6]
> 8.97 µM: all other assays above

COc1cc(Nc2ncnc(-n3c(NCc4cccs4)nc4ccccc43)n2)cc(OC)c1OC [Compound 950]
4.9 to 7.15 µM: [16]
0.817 to 4.9 µM: [6] | [9] | [10] | [18] | [19]
> 9.19 µM: [1] | [3] | [5] | [7] | [11] | [15]
< 0.817 µM: all other assays above

COc1cc(Nc2ncnc(-n3c(NCc4cccc(C)c4)nc4ccccc43)n2)cc(OC)c1OC [Compound 515]
0.804 to 4.82 µM: [4]
< 0.804 µM: [2] | [8] | [13] | [14] | [17]
7.03 to 9.04 µM: [16]
> 9.04 µM: all other assays above

CCc1cccc(Nc2ncnc(-n3c(N)nc4ccccc43)n2)c1 [Compound 655]
7.24 to 10.6 µM: [10] | [12] | [16] | [18]
> 13.6 µM: [1] | [7] | [9] | [11]
< 1.21 µM: [4] | [5] | [13] | [14]
1.21 to 7.24 µM: all other assays above

CC(C)Nc1ncccc1-c1ncnc(Nc2ccc(C(N)=O)cc2)n1 [Compound 1084]
< 1.14 µM: [8] | [12] | [13]
6.87 to 10 µM: [3] | [15]
1.14 to 6.87 µM: [2] | [14]
> 12.9 µM: all other assays above

COc1cc(Nc2ncnc(-n3c(NCc4ccc(F)cc4)nc4ccccc43)n2)cc(OC)c1OC [Compound 514]
< 0.798 µM: [2] | [4] | [13] | [14] | [17]
> 8.97 µM: all other assays above
